Where a name gives a salt, the structure may show the parent alone.
Biological target: T1, human DPP-IV (Homo sapiens, UniProt P27487)
T1 construct: made in house; host or cells: Pichia pastoris (purified from the culture medium)
Assay: DPP-IV activity assay (colorimetric / fluorometric)
Assay type: biochemical
Conditions: natural human DPP-IV from human plasma pool or recombinant human DPP-IV; 37° C., pH 7.8
Protocol: Activity of DPP-IV inhibitors are tested with natural human DPP-IV derived from a human plasma pool or with recombinant human DPP-IV. Human citrate plasma from different donors is pooled, filtered through a 0.2 micron membrane under sterile conditions and aliquots of 1 mL are shock frozen and stored at […]. until used. In the colorimetric DPP-IV assay 5 to 10 μL human plasma and in the fluorometric assay 1.0 μL of human plasma in a total assay volume of 100 μL is used as an enzyme source. The cDNA of the human DPP-IV sequence of amino acid 31- to 766, restricted for the N-terminus and the transmembrane domain, is cloned into pichia pastoris. […]
In the colorimetric assay H-Ala-Pro-pNA.HCl (Bachem L-1115) is used as a substrate. […] Fluorescence is detected in a Perkin Elmer Luminescence Spectrometer LS 50B at an excitation wavelength of 400 nm and an emission wavelength of 505 nm continuously every 15 seconds for 10 to 30 minutes. Initial rate constants are calculated by best fit linear regression. The absorption of pNA liberated from the colorimetric substrate is detected in a Packard SpectraCount at […] continuously every 2 minutes for 30 to 120 minutes. Initial rate constants are calculated by best fit linear regression. […]
IC50 determinations of test compounds are calculated by non-linear best fit regression of the DPP-IV inhibition of at least 5 different compound concentrations. […]

T1 sequence (P27487 31-766): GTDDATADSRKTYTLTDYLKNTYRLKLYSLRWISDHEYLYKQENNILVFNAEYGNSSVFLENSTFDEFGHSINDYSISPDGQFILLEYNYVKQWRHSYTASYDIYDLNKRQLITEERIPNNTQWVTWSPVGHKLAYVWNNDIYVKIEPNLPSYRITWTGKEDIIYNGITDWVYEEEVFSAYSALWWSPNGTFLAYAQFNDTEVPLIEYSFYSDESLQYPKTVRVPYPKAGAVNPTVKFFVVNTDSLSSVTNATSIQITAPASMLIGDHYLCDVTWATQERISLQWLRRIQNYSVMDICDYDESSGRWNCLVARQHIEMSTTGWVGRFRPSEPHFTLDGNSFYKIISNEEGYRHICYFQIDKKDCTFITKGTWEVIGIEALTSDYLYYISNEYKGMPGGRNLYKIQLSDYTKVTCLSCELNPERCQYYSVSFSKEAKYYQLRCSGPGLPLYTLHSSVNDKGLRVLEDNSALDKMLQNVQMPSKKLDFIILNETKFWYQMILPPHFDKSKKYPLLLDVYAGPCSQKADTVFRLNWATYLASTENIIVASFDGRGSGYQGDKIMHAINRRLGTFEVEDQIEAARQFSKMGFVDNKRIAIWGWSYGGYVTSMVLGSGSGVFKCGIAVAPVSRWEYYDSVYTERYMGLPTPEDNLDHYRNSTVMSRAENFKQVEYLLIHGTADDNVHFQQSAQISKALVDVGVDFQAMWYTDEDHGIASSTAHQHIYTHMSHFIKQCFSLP

IC50: 21.2 nM | Ki: 22.7 nM
SMILES: CC(C)(CCn1cnc(-c2cccnc2)c1)NCC(=O)N1CCC[C@H]1C#N [(2S)-1-{[1,1-Dimethyl-3-(4-pyridin-3-yl-imidazol-1-yl)-propylamino]-acetyl}-pyrrolidine-2-carbonitrile fumarate]

Source: patent publication US20100093808A1, “SALT AND POLYMORPH OF A DPP-IV INHIBITOR” (priority 2005, published 2010)
